Results: patent US20060078584A1, “Multi-functional oxidizing composition” (priority 2004, published 2006)
Read-outs that look alike come from different tables or passages of the source.

Columns and labels:
[1] = Storage stability of dry blends (ambient and accelerated aging in humid oven); assay type: physicochemical; conditions: one month
Protocol: In all examples, active oxidant concentrations are expressed in weight percent and are determined by standard iodometric titration as described in the “OXONE Monopersulfate Compound Technical Information” Bulletin, No. H-42434-5, dated April 2000, published by E. I. du Pont de Nemours and Company.
A weighed sample (0.05-0.30 g) to be analyzed is dissolved in cold deionized water (<10° C., about 50 mL), treated with potassium iodide solution (10 mL 25% aqueous), acidified (10 mL 20% sulfuric acid), and titrated with standardized 0.1N sodium thiosulfate reagent to an endpoint visualized by a starch indicator. The total active oxidant content (active oxygen+active halogen) is expressed as percent active oxygen (% AO) and is calculated as follows: % AO=(0.8×Volume of titrant, mL)(Normality of titrant)/(Sample Weight, g).
OXONE monopersulfate compound (180 g, 90 wt. %) and anhydrous sodium dichloro-s-triazinetrione (20 g, 10 wt. %) were dry blended in a 250-ml high-density poly(propylene (HDPE) bottle. The mixture was placed on a laboratory roll mill for two hours to ensure complete blending of the components. The blended product was then divided into two portions. One portion was stored at ambient conditions (22±2° C., 55±5% relative humidity [RH]); the other in a humid oven at 50±2° C., 80±5% RH denoted as “accelerated aging”). Both portions were stored in sealed screw-cap HDPE bottles. Both samples were monitored on a weekly basis for one month to assess physical integrity and active oxidant loss. […]. […].

[2] = cited from earlier work
[3] = Solubility in water and in acidic potassium monopersulfate solution; conditions: in a 20% potassium monopersulfate solution, pH of about 1.2
[4] = accelerated aging, 50° C., 80% RH
[5] = accelerated aging, 50±2° C., 80±5% RH, sealed HDPE containers

O=c1nc([O-])n(Cl)c(=O)n1Cl.[Na+] [Comparative Example E, Anhydrous sodium dichloro-s-triazinetrione]
Active oxidant retention / loss [1, 4]: acceptable active oxidant stability | Chlorine odor / halogen evolution [1, 4]: characteristic chlorine odor | Flowability [1, 4]: good flowability | Chlorine Odor (degree 0-5) [1, 5]: 3 | Flowability [1, 5]: Free-flowing | Total % AO Remaining (%) ([1]; total oxidant (active oxygen + active halogen) remaining after accelerated storage, 50° C., 80% RH): 93% | Solubility in water ([2]; neutral pH (about pH 6-7), 25° C.): about 24 g/100 g H2O | Solubility [3]: about 1 g/100 mL

CC1(C)C(=O)N(Br)C(=O)N1Br [dibromodimethylhydantion, 1,3-dibromo-5,5-dimethylhydantoin]
Solubility in water [2]: 0.25 g/100 g water

CC1(C)C(=O)N(Br)C(=O)N1Cl [bromochlorodimethylhydantion, 3-bromo-1-chloro-5,5-dimethylhydantoin]
Solubility in water [2]: 0.2 g/100 g water

CC1(C)C(=O)N(Cl)C(=O)N1Cl [dichlorodimethylhydantion, 1,3-dichloro-5,5-dimethylhydantoin]
Solubility in water [2]: 0.2 g/100 g water
